Data from PubChem BioAssay AID2083 (Sanford-Burnham Center for Chemical Genomics, 2009).

Target: Dual specificity protein phosphatase 1 (Homo sapiens) (UniProt P28562)
Test: inhibitors of DUSP1 phosphatase activity – biochemical, DiFMUP, fluorescence, selectivity assay for VHR1 inhibitor project, SAR follow-up (AID 2083)
Details: recombinant MKP-1, DiFMUP fluorescence

Sequence of Dual specificity protein phosphatase 1 (Homo sapiens) (P28562 whole entry, looked up): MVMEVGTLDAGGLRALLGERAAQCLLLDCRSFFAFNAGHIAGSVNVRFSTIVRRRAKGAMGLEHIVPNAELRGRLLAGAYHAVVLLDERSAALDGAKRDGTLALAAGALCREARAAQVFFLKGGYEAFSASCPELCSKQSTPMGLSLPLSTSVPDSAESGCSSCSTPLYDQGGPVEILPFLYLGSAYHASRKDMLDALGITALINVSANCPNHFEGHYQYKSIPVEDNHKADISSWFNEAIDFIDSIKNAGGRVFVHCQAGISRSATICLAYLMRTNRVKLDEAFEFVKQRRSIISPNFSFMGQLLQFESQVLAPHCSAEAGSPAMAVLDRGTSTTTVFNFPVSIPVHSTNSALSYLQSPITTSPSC

Row | Compound | IC50
1 | O=C1/C(=C/c2cn(-c3ccccc3)nc2-c2ccc(OCc3ccccc3)cc2)SC(=S)N1CCS(=O)(=O)O | 780 nM
2 | O=C1/C(=C/c2cn(-c3ccccc3)nc2-c2ccc(OCc3ccccc3F)cc2)SC(=S)N1CCS(=O)(=O)O | 520 nM
3 | O=C1/C(=C/c2cn(-c3ccccc3)nc2-c2ccc(OCc3ccc(Cl)cc3)cc2)SC(=S)N1CCS(=O)(=O)O | 460 nM

Other lines, results leading:

Row | IC50 | Compound
4 | 2800 nM | O=C1/C(=C/c2cn(-c3ccccc3)nc2-c2ccc(S(=O)(=O)N3CCCCC3)cc2)SC(=S)N1CCS(=O)(=O)O
5 | 470 nM | O=C1/C(=C/c2cn(-c3ccccc3)nc2-c2ccc(OCc3ccccc3Cl)cc2)SC(=S)N1CCS(=O)(=O)O
